Values quoted from earlier work in patent publication US20150366832A1, “CARBIDOPA/LEVODOPA GASTRORETENTIVE DRUG DELIVERY” (INTEC PHARMA LTD., priority 2008, published 2015).

half-life (Carbidopa and Levodopa administered together) | plasma half-life (without Carbidopa) | crossing of the blood-brain barrier (human, in vivo) | Compound | reduction of the amount of Levodopa required to produce a given response (Carbidopa given with Levodopa)
about 1.5 hours | about 50 minutes |  | N[C@@H](Cc1ccc(O)c(O)c1)C(=O)O [Levodopa] | 
 |  | does not cross the blood-brain barrier | C[C@@](Cc1ccc(O)c(O)c1)(NN)C(=O)O [Carbidopa] | about 75%
